Assay results reported in US20070148184A1, “Survivin-derived peptides and use thereof” (priority 2003, published 2007).
Values joined by “and” are separate entries in the source; they are usually repeats but may differ in a detail not shown here. Equal values may be shown once. “Also recorded” adds a separate entry of the source. Read-outs that look alike come from different tables or passages of the source. Residues, ends and D or L forms follow the SMILES beside them. No end group written: not given here.

Experiments:
[1] = molecular target: T1, HLA-A2 (Homo sapiens, UniProt P04439, D140Y/D185E/D98H/E176V/E277Q/G131W/G231S/I119V/I121R/I166T/I218V/L300P/L318F/N151K/N90K/P208A/P217A/Q86G/Q94H/R138H/R169H/T345S); test: Assembly assay for peptide binding to class I MHC, HLA-A2
T1 construct: stabilization of the class I molecules after loading of peptide to the peptide transporter deficient cell line T2; endogenous in cells; host or cells: T2 (TAP-deficient human hybrid cell line), metabolically labelled lysate
Description: This assembly assay is carried out as described previously (12,13), and it is based on stabilisation of the HLA molecule after loading of peptide to the peptide transporter deficient cell line T2. Subsequently, correctly folded stable HLA heavy chains are immunoprecipitated using conformation dependent antibodies and the peptide binding is quantitated.
Assembly assays for binding of the synthetic peptides to class I MHC molecules metabolically labeled with [35S]-methionine were carried out as described (12,13). The assembly assay is based on stabilization of the class I molecules after loading of peptide to the peptide transporter deficient cell line T2. Subsequently, correctly folded stable MHC heavy chains are immunoprecipitated using conformation-dependent antibodies. After IEF electrophoresis, gels were exposed to phosphoImager screens, and peptide binding was quantified using the Imagequant PhosphorImager program (Molecular Dynamics, Sunnyvale, Calif.).
The binding affinity of synthetic peptides (Invitrogen, Carlsbad, Calif., USA) to HLA-A1, -A2, A3, or -A11 molecules metabolically labeled with [^35S]-methionine was measured in the assembly assay, as described previously (12). The assay is based on peptide-mediated stabilization of empty HLA molecules released upon cell lysis, from the TAP-deficient cell lines. […] MHC heavy chain bands were quantified using the ImageGauge Phosphorimager program (FUJI photo film Co., Carrollton, Tex., USA). The intensity of the band is proportional to the amount of peptide-bound class I MHC complex recovered during the assay. Subsequently, the extent of stabilization of the HLA-molecule is directly related to the binding affinity of the added peptide. The peptide concentration used to analyze the recovery of the HLA-molecules was 40, 4, 0.4, 0.04 μM for HLA-A1 and HLA-A11, and 100, 10, 1, 0.1, 0.01 μM for HLA-A2 and HLA-A3. The C50 value was subsequently calculated for each peptide as the peptide concentration sufficient for half maximal stabilization.

[2] = molecular target: HLA-A3 (Homo sapiens, UniProt P04439); test: Assembly assay, HLA-A3; type: binding; settings: for EC50: Table 4, HLA-A3, read-out: C50
Description: The binding affinity of synthetic peptides (Invitrogen, Carlsbad, Calif., USA) to HLA-A1, -A2, A3, or -A11 molecules metabolically labeled with [^35S]-methionine was measured in the assembly assay, as described previously (12). The assay is based on peptide-mediated stabilization of empty HLA molecules released upon cell lysis, from the TAP-deficient cell lines. Stably folded HLA-molecules were immune-precipitated using the HLA class I-specific, conformation-dependent mAb W6/32, and separated by isoelectric focusing (IEF) gel electrophoresis. MHC heavy chain bands were quantified using the ImageGauge Phosphorimager program (FUJI photo film Co., Carrollton, Tex., USA). The intensity of the band is proportional to the amount of peptide-bound class I MHC complex recovered during the assay. Subsequently, the extent of stabilization of the HLA-molecule is directly related to the binding affinity of the added peptide. The peptide concentration used to analyze the recovery of the HLA-molecules was 40, 4, 0.4, 0.04 μM for HLA-A1 and HLA-A11, and 100, 10, 1, 0.1, 0.01 μM for HLA-A2 and HLA-A3. The C50 value was subsequently calculated for each peptide as the peptide concentration sufficient for half maximal stabilization.

[3] = system: peptide epitope-specific interferon-γ releasing effector cells; test: IFN-γ ELISPOT, Example 4 (PBL or TIL from cancer patients); type: cell-based, human
Description: To extend the sensitivity of the ELISPOT assay, PBL were stimulated once in vitro prior to analysis. At day 0, PBL or crushed lymph nodes were thawed and plated as 2×10^6 cells in 2 ml/well in 24-well plates (Nunc, Roskilde, Denmark) in x-vivo medium (Bio Whittaker, Walkersville, Md.), […] heat-inactivated human serum, and 2 mM of L-glutamine in the presence of 10 μM of peptide. Two days later 20 IU/ml recombinant interleukin-2 (IL-2) (Chiron, Ratingen, Germany) was added to the cultures. The cultured cells were tested for reactivity in the ELISPOT on day 10.
The ELISPOT assay was used to quantify peptide epitope-specific interferon-γ releasing effector cells as previously described (16). Briefly, nitrocellulose bottomed 96-well plates (MultiScreen MAIP N45, Millipore, Hedehusene, Denmark) were coated with anti-IFN-γ antibody (1-D1K, Mabtech, Nacka, Sweden). The wells were washed, blocked by X-vivo medium, and the cells were added in duplicates at different cell concentrations. The peptides were then added to each well and the plates were incubated overnight. The following day, media was discarded and the wells were washed prior to addition of biotinylated secondary antibody (7-B6-1-Biotin, Mabtech). The plates were incubated for 2 hours, washed, and avidin-alkaline phosphatase conjugate (Calbiochem, Life Technologies, Inc. San Diego, Calif., USA) was added to each well. The plates were incubated at room temperature for one hour, washed, and the enzyme substrate NBT/BCIP (DakoCytomation Norden A/S, Glostrup, Denmark) was added to each well and incubated at RT for 5-10 min. Upon the emergence of dark purple spots, the reaction was terminated by washing with tap-water. The spots were counted using the ImmunoSpot® Series 2.0 Analyzer (CTL Analyzers, LLC, Cleveland, US) and the peptide specific CTL frequency could be calculated from the numbers of spot-forming cells. All assays were performed in duplicates for each peptide antigen.

[4] = Table 4, HLA-A2, 11-mers and controls, read-out: C50
[5] = Example 1, Table 1, read-out: C50 (peptide concentration for half maximal binding to HLA-A2)

Molecule: PTLPPAWQPFL [Sur4-14]
- C50 (half maximal recovery of HLA-A2) ([1]; Example 4): did not bind
- EC50 [1, 4]: > 100 µM

Molecule: KLDRERAKNKI [Sur103-113]
- C50 (half maximal recovery of HLA-A2) ([1]; Example 4): did not bind
- EC50 [1, 4]: > 100 µM

Molecule: CC(C)C[C@H](NC(=O)[C@@H](N)CC(C)C)C(=O)N[C@@H](CCC(N)=O)C(=O)N[C@@H](CS)C(=O)N[C@@H](Cc1ccccc1)C(=O)N[C@@H](Cc1ccccc1)C(=O)N[C@@H](CS)C(=O)N[C@@H](Cc1ccccc1)C(=O)N[C@@H](CCCCN)C(=O)O [Sur54L2]
- binding to HLA-A3, in words [2]: high affinity
- ELISPOT response ([3]; HLA-A3, nine samples from melanoma patients (five PBL and four TIL)): No responses were detected

Molecule: CC(C)C[C@H](NC(=O)[C@H](CCC(=O)O)NC(=O)[C@H](CCCCN)NC(=O)[C@H](Cc1ccccc1)NC(=O)[C@H](CS)NC(=O)[C@H](Cc1ccccc1)NC(=O)[C@H](Cc1ccccc1)NC(=O)[C@H](CS)NC(=O)[C@H](CCC(N)=O)NC(=O)[C@H](C)NC(=O)[C@@H](N)CC(C)C)C(=O)O [Sur54-64] (H-LAQCFFCFKEL-OH; N-terminus and C-terminus assumed)
- C50 (half maximal recovery of HLA-A2) ([1]; Example 4): did not bind

Molecule: SVKKQFEELTL [Sur88-98]
- C50 (half maximal recovery of HLA-A2) ([1]; Example 4): did not bind
- EC50 [1, 4]: > 100 µM

Molecule: FLKDHRISTK [Sur13K9]
- binding to HLA-A3, in words [2]: no detectable effect
- EC50 [2]: > 100 µM

Molecule: TLPPAWQPF [Sur 5-13]
- EC50 [2]: > 100 µM

Molecule: RAIEQLAAM [Sur2]
- C50 (peptide concentration for half maximal binding to HLA-A2) ([1]; Example 1, Table 1): did not bind; also recorded: Not binding

Molecule: CC(C)C[C@H](NC(=O)[C@@H](N)CC(=O)O)C(=O)N[C@@H](C)C(=O)N[C@@H](CCC(N)=O)C(=O)N[C@@H](CS)C(=O)N[C@@H](Cc1ccccc1)C(=O)N[C@@H](Cc1ccccc1)C(=O)N[C@@H](CS)C(=O)N[C@@H](CCCCN)C(=O)O [Sur53K9] (H-DLAQCFFCK-OH; N-terminus and C-terminus assumed)
- binding to HLA-A3, in words [2]: no detectable effect

Molecule: CC[C@H](C)[C@H](NC(=O)[C@H](C)NC(=O)[C@H](CCCNC(=N)N)NC(=O)[C@H](CCCNC(=N)N)NC(=O)[C@@H](NC(=O)[C@@H](N)CCCCN)C(C)C)C(=O)N[C@@H](CCC(=O)O)C(=O)N[C@@H](CCC(N)=O)C(=O)N[C@@H](CC(C)C)C(=O)O [Sur3]
- EC50 [1, 5]: > 100 µM

Molecule: KLDRERAKNK [Sur 103-112]
- EC50 [2]: > 100 µM

Molecule: CC[C@H](C)[C@H](N)C(=O)N[C@@H](CC(C)C)C(=O)N[C@@H](CCCNC(=N)N)C(=O)NCC(=O)N[C@@H](CO)C(=O)N[C@H](C(=O)N[C@@H](C)C(=O)N[C@@H](Cc1c[nH]cn1)C(=O)N[C@@H](CCCCN)C(=O)O)C(C)C [C3, reference compound]
- EC50 [2]: 0.1 to 0.3 µM and 0.1 µM

Molecule: CC(C)C[C@H](NC(=O)[C@H](Cc1ccccc1)NC(=O)[C@@H]1CCCN1C(=O)[C@H](CCC(N)=O)NC(=O)[C@H](Cc1c[nH]c2ccccc12)NC(=O)[C@H](C)NC(=O)[C@@H]1CCCN1C(=O)[C@@H]1CCCN1C(=O)[C@H](CC(C)C)NC(=O)[C@@H](N)[C@@H](C)O)C(=O)O [Sur8]
- EC50 [1, 5]: 30 µM

Molecule: IAKETNNKKK [Sur 113-122]
- EC50 [2]: > 100 µM

Molecule: CC[C@H](C)[C@H](N)C(=O)N[C@@H](CC(C)C)C(=O)N[C@@H](CCCCN)C(=O)N[C@@H](CCC(=O)O)C(=O)N[C@H](C(=O)N[C@@H](CC(N)=O)C(=O)N[C@@H](CC(N)=O)C(=O)N[C@@H](CCCCN)C(=O)N[C@@H](CCCCN)C(=O)N[C@@H](CCCCN)C(=O)O)[C@@H](C)O [Sur113L2]
- binding to HLA-A3, in words [2]: only bound weakly
- EC50 [2]: > 100 µM

Molecule: STFKNWPFL [Sur4]
- C50 (peptide concentration for half maximal binding to HLA-A2) ([1]; Example 1, Table 1): did not bind; also recorded: Not binding

Molecule: TAKKVRRAI [Sur7]
- C50 (peptide concentration for half maximal binding to HLA-A2) ([1]; Example 1, Table 1): did not bind; also recorded: Not binding

Molecule: FLKDHRISTF [Sur 13-22]
- EC50 [2]: > 100 µM

Molecule: PTENEPDLAQ [Sur47-56]
- ELISPOT response ([3]; HLA-A1, ten melanoma patients, data not shown): no peptide-specific responses were detected

Molecule: FLKLDRERAK [Sur 101-110]
- EC50 [2]: > 100 µM

Molecule: CAFLSVKKQF [Sur 84-93]
- EC50 [2]: > 100 µM

Molecule: RISTFKNWPF [Sur 18-27]
- EC50 [2]: > 100 µM

Molecule: CC[C@H](C)[C@H](NC(=O)[C@@H](N)[C@@H](C)O)C(=O)N[C@@H](CCCNC(=N)N)C(=O)N[C@@H](CCCNC(=N)N)C(=O)N[C@@H](CCCCN)C(=O)N[C@@H](CC(N)=O)C(=O)N[C@@H](CC(C)C)C(=O)N[C@@H](CCCNC(=N)N)C(=O)N[C@@H](CCCCN)C(=O)O [SurEx3-A3-1]
- EC50 [2]: 0.5 µM

Molecule: RITREEHKK [Sur2b-A3-1]
- EC50 [2]: > 100 µM

Molecule: PTIRRKNLRK [SurEx3-A3-2]
- EC50 [2]: > 100 µM

Molecule: CC(C)C[C@H](NC(=O)[C@H](CCCCN)NC(=O)[C@H](CC(C)C)NC(=O)[C@H](Cc1ccccc1)NC(=O)[C@H](CCC(=O)O)NC(=O)CNC(=O)[C@H](CC(C)C)NC(=O)[C@@H](NC(=O)[C@@H](N)CC(C)C)[C@@H](C)O)C(=O)O [Sur1]
- EC50 [1, 5]: > 100 µM
- EC50 ([1]; Example 4, read-out: C50 (half maximal recovery of HLA-A2)): > 100 µM

Molecule: CC(C)C[C@H](NC(=O)[C@H](CCCCN)NC(=O)[C@H](CC(C)C)NC(=O)[C@H](Cc1ccccc1)NC(=O)[C@H](CCC(=O)O)NC(=O)CNC(=O)[C@H](CC(C)C)NC(=O)[C@@H](NC(=O)[C@H](CC(C)C)NC(=O)[C@@H](N)CCC(=O)O)[C@@H](C)O)C(=O)O [Sur9]
- EC50 [1, 5]: 10 µM

Molecule: CC(C)C[C@H](NC(=O)[C@H](CCCCN)NC(=O)[C@H](CC(C)C)NC(=O)[C@@H](N)Cc1ccccc1)C(=O)N[C@@H](CC(=O)O)C(=O)N[C@@H](CCCNC(=N)N)C(=O)N[C@@H](CCC(=O)O)C(=O)N[C@@H](CCCNC(=N)N)C(=O)N[C@@H](C)C(=O)O [Sur6]
- EC50 [1, 5]: 30 µM

Molecule: SVKKQFEEL [Sur5]
- C50 (peptide concentration for half maximal binding to HLA-A2) ([1]; Example 1, Table 1): did not bind; also recorded: Not binding

Molecule: ETAKKVRRAI [Sur10]
- C50 (peptide concentration for half maximal binding to HLA-A2) ([1]; Example 1, Table 1): did not bind; also recorded: Not binding

Molecule: CC(C)C[C@H](NC(=O)[C@H](CCC(=O)O)NC(=O)[C@H](CCC(=O)O)NC(=O)[C@H](Cc1ccccc1)NC(=O)[C@H](CCC(N)=O)NC(=O)[C@H](CCCCN)NC(=O)[C@H](CCCCN)NC(=O)[C@@H](NC(=O)[C@H](CO)NC(=O)[C@H](CC(C)C)NC(=O)[C@@H](N)Cc1ccccc1)C(C)C)C(=O)O [Sur86-96]
- patients with CTL response in PBL ([3]; HLA-A2, ten cancer patients analyzed): no responses could be detected
